According to ChEMBL document CHEMBL1158467, “In vitro intrinsic clearance-based optimization of N3-phenylpyrazinones as corticotropin-releasing factor-1 (CRF1) receptor antagonists” (J Med Chem, 2009):
Values after ≈ are worked out from the molar mass of the structure shown. Active and inactive are the calls of the source. The rule behind the calls is not given here.

Experiments:
[1] = Oral bioavailability in Sprague-Dawley rat at 10 mg/kg dosed as aqueous suspension of 1% polysorbate 80 in 0.5% methylcellulose within 0.25 to 24 hrs; type: ADME, organism-based; conditions: in vivo
[2] = Half life in Sprague-Dawley rat 2 mg/kg, iv within 0.17 to 24 hrs; type: ADME, organism-based; design: dose 2 mg/kg, route intravenous; conditions: in vivo
[3] = AUC in Sprague-Dawley rat at 10 mg/kg, po dosed as aqueous solution of oleoyl macrogolglyceride/DMAC/polysorbate 80, 85:10:5 within 0.25 to 24 hrs; type: ADME, organism-based; design: time 0.25-24 hr, dose 10 mg/kg, route oral; conditions: plasma
[4] = Aqueous solubility at pH 6.5; type: physicochemical
[5] = AUC in Sprague-Dawley rat at 10 mg/kg, po dosed as aqueous suspension of 1% polysorbate 80 in 0.5% methylcellulose within 0.25 to 24 hrs; type: ADME, organism-based; design: time 0.25-24 hr, dose 10 mg/kg, route oral; conditions: in vivo
[6] = Cmax in Sprague-Dawley rat at 10 mg/kg, po dosed as aqueous suspension of 1% polysorbate 80 in 0.5% methylcellulose within 0.25 to 24 hrs; type: ADME, organism-based; design: dose 10 mg/kg, route oral; conditions: in vivo
[7] = Aqueous solubility at pH 1; type: physicochemical
[8] = (§1) Oral bioavailability in Sprague-Dawley rat at 10 mg/kg dosed as aqueous solution of oleoyl macrogolglyceride/DMAC/polysorbate 80, 85:10:5 within 0.25 to 24 hrs; type: ADME, organism-based; conditions: Sprague-Dawley, in vivo
[9] = Clearance in Sprague-Dawley rat 2 mg/kg, iv within 0.17 to 24 hrs; type: ADME, organism-based; design: dose 2 mg/kg, route intravenous; conditions: in vivo
[10] = target: T1, Corticotropin-releasing factor receptor 1 (Rattus norvegicus, UniProt P35353); assay: Displacement of [125I]ovine-CRF from CRF1 receptor in rat frontal cortex by rapid filtration technique; type: tissue-based
T1 sequence (P35353 whole entry): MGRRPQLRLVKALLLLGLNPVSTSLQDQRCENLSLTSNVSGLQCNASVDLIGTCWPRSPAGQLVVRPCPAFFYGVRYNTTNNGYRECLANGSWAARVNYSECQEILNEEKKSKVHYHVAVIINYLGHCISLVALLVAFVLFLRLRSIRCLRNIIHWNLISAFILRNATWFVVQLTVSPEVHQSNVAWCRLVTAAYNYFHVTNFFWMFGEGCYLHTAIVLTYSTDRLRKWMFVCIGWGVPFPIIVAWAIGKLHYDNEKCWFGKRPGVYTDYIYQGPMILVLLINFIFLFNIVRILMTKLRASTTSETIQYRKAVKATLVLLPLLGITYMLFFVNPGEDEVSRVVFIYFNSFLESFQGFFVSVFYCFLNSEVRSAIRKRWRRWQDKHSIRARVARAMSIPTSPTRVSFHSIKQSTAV

Rattus norvegicus [11] = assay: Anxiolytic activity in Sprague-Dawley rat at 10 mg/kg, po assessed as decrease in exit latency after 60 mins by defensive withdrawal test relative to control; type: functional; design: scale not given: the % may be the effect or the level left
[12] = Volume of distribution at steady state in Sprague-Dawley rat 2 mg/kg, iv within 0.17 to 24 hrs; type: ADME, organism-based; design: dose 2 mg/kg, route intravenous; conditions: in vivo, read-out: Vdss
Rattus norvegicus [13] = assay: Ex vivo receptor occupancy of CRF1 receptor in Sprague-Dawley rat brain at 10 mg/kg, po after 20 mins by autoradiography relative to [125I-tyrosine]sauvagine; type: functional
[14] = (§2) Cmax in Sprague-Dawley rat at 10 mg/kg, po dosed as aqueous solution of oleoyl macrogolglyceride/DMAC/polysorbate 80, 85:10:5 within 0.25 to 24 hrs; type: ADME, organism-based; design: dose 10 mg/kg, route oral; conditions: Sprague-Dawley, in vivo
[15] = Fraction unbound in Sprague-Dawley rat plasma at 10 mg/kg, po after 3 hrs by equilibrium dialysis; type: ADME, organism-based; design: dose 10 mg/kg, route oral
[16] = Intrinsic clearance in human liver microsomes at 1 uM; type: ADME, Microsome
Rattus norvegicus [17] = assay: Plasma free concentration in Sprague-Dawley rat at 10 mg/kg, po; type: ADME, organism-based; design: dose 10 mg/kg, route oral; conditions: in vivo
Rattus norvegicus [18] = assay: Total plasma concentration in Sprague-Dawley rat at 10 mg/kg, po; type: ADME, organism-based; design: dose 10 mg/kg, route oral; conditions: in vivo
[19] = target: Corticotropin releasing hormone receptor 2 (Sus scrofa, UniProt B8Q4Z9); assay: Displacement of [125I]sauvagine from CRF2 receptor in pig choroid plexus by rapid filtration technique; type: tissue-based
Corticotropin releasing hormone receptor 2, sequence (B8Q4Z9 whole entry): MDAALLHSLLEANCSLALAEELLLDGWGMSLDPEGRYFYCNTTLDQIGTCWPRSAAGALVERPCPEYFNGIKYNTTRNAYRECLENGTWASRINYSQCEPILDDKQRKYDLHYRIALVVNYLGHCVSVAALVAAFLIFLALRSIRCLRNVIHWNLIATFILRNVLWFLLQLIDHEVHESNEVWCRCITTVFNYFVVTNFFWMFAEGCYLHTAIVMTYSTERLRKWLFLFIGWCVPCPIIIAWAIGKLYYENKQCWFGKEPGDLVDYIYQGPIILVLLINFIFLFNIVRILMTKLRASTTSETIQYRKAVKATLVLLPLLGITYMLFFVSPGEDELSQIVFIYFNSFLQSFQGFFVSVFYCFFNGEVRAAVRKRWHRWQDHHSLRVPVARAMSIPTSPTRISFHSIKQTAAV

Rattus norvegicus [20] = assay: Total plasma concentration in Sprague-Dawley rat at 1 mg/kg, po; type: ADME, organism-based; design: dose 1 mg/kg, route oral; conditions: in vivo
Rattus norvegicus [21] = assay: Anxiolytic activity in Sprague-Dawley rat at 1 mg/kg, po assessed as decrease in exit latency after 60 mins by defensive withdrawal test relative to control; type: functional; design: scale not given: the % may be the effect or the level left
Rattus norvegicus [22] = assay: Ex vivo receptor occupancy of CRF1 receptor in po dosed Sprague-Dawley rat brain after 20 mins by autoradiography; type: functional, organism-based
Rattus norvegicus [23] = assay: Anxiolytic activity in Sprague-Dawley rat at 3 mg/kg, po assessed as decrease in exit latency after 60 mins by defensive withdrawal test relative to control; type: functional; design: scale not given: the % may be the effect or the level left
Rattus norvegicus [24] = assay: Total plasma concentration in Sprague-Dawley rat at 3 mg/kg, po; type: ADME, organism-based; design: dose 3 mg/kg, route oral; conditions: in vivo
Rattus norvegicus [25] = assay: Ex vivo receptor occupancy of CRF1 receptor in Sprague-Dawley rat brain at 1 mg/kg, po after 20 mins by autoradiography relative to [125I-tyrosine]sauvagine; type: functional
Rattus norvegicus [26] = assay: as §1; type: ADME, organism-based; conditions: in vivo
[27] = target: T2, Corticotropin-releasing factor receptor 1 (Homo sapiens, UniProt P34998); assay: Antagonist activity at CRF1 receptor in human Y-79 cells assessed as inhibition of CRF-induced cAMP production after 30 mins by HTRF analysis
T2 sequence (P34998 whole entry): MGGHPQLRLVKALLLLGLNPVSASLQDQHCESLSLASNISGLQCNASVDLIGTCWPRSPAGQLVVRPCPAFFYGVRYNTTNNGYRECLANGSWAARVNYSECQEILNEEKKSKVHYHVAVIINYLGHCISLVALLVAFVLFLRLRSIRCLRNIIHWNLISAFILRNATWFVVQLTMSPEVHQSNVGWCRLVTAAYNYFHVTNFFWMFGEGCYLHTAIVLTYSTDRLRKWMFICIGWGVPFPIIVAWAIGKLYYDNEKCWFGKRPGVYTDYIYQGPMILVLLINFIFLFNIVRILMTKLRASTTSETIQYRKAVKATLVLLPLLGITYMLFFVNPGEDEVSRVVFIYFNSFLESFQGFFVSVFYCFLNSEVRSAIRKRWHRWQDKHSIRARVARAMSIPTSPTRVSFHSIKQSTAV

Rattus norvegicus [28] = assay: Ex vivo receptor occupancy of CRF1 receptor in Sprague-Dawley rat brain at 3 mg/kg, po after 20 mins by autoradiography relative to [125I-tyrosine]sauvagine; type: functional
Rattus norvegicus [29] = assay: Plasma free concentration in Sprague-Dawley rat at 3 mg/kg, po; type: ADME, organism-based; design: dose 3 mg/kg, route oral; conditions: in vivo
Rattus norvegicus [30] = assay: Plasma free concentration in Sprague-Dawley rat at 1 mg/kg, po; type: ADME, organism-based; design: dose 1 mg/kg, route oral; conditions: in vivo
Rattus norvegicus [31] = assay: as §2; type: ADME, organism-based; design: dose 10 mg/kg, route oral; conditions: in vivo

| Compound | bioavailability [1] | half-life [2] | AUC [3] | solubility [4] | AUC [5] | Cmax [6] | solubility [7] | clearance [9] | IC50 [10] | Activity (Rattus norvegicus [11]) | Vd [12] | Activity (Rattus norvegicus [13]) | fraction unbound at 3 h [15] | CLint scaled at 1 µM [16] | Cp(f) (Rattus norvegicus [17]) | concentration (Rattus norvegicus [18]) | other results |
| --- | --- | --- | --- | --- | --- | --- | --- | --- | --- | --- | --- | --- | --- | --- | --- | --- | --- |
| C[C@H](C1CC1)n1cc(C#N)nc(Nc2c(Cl)cc(OC(F)F)cc2Cl)c1=O | 10% | 720 min | 15 µM·h | < 1 µg/mL | 1.9 µM·h | 160 nM | < 1 µg/mL | 21 mL/min/kg | 4.3 nM | 61% | 13 L/kg | 55% | 0.03 | – | – | – | bioavailability [8]: 80%; Cmax [14]: 1600 nM |
| C[C@H](C1CC1)n1cc(C#N)nc(Nc2c(Cl)cc(C(F)(F)F)cc2Cl)c1=O | – | – | – | – | – | – | – | – | 7.5 nM | – | – | 68% | 0.011 | 13 mL/min/kg | 16 nM | 1400 nM | – |
| C[C@H](C1CC1)n1cc(Cl)nc(Nc2c(Cl)cc(C#N)cc2Cl)c1=O | – | – | – | – | – | – | – | – | – | – | – | 11% | 0.019 | 58 mL/min/kg | 2.3 nM | 120 nM | – |
| Cc1cc(C#N)cc(Cl)c1Nc1nc(Cl)cn([C@H](C)C2CC2)c1=O | – | – | – | – | – | – | – | – | 2.9 nM | – | – | 34% | 0.044 | 38 mL/min/kg | 11 nM | 250 nM | – |
| Cc1cn([C@H](C)C2CC2)c(=O)c(Nc2c(C)cc(Cl)cc2C)n1 | 6% | 720 min | 1.7 µM·h | 13 µg/mL (≈ 39.2 µM) | 0.95 µM·h | 95 nM | 1360 µg/mL (≈ 4100 µM) | 30 mL/min/kg | 3.1 nM | – | 12 L/kg | – | – | – | – | – | bioavailability [8]: 10%; Cmax [14]: 270 nM |
| CC[C@H](C)[C@H](NC(=O)[C@@H](NC(=O)[C@H](CC(=O)O)NC(=O)[C@H](CC(C)C)NC(=O)[C@H](CC(C)C)NC(=O)[C@H](CC(C)C)NC(=O)[C@H](CCCNC(=N)N)NC(=O)[C@H](CC(N)=O)NC(=O)[C@H](CC(N)=O)NC(=O)[C@H](C)NC(=O)[C@H](C)NC(=O)[C@H](CCC(N)=O)NC(=O)[C@H](CCC(N)=O)NC(=O)[C@H](CCCCN)NC(=O)[C@H](CCC(=O)O)NC(=O)[C@H](CCCCN)NC(=O)[C@H](CCC(=O)O)NC(=O)[C@H](CCC(N)=O)NC(=O)[C@H](CCCCN)NC(=O)[C@H](CCC(=O)O)NC(=O)[C@@H](NC(=O)[C@H](CCC(=O)O)NC(=O)[C@@H](NC(=O)[C@H](CCSC)NC(=O)[C@H](CCCCN)NC(=O)[C@H](CCCNC(=N)N)NC(=O)[C@H](CC(C)C)NC(=O)[C@H](CC(C)C)NC(=O)[C@H](CCC(=O)O)NC(=O)[C@H](CC(C)C)NC(=O)[C@H](CO)NC(=O)[C@H](CC(C)C)NC(=O)[C@H](CC(=O)O)NC(=O)[C@@H](NC(=O)[C@H](CO)NC(=O)[C@@H](NC(=O)[C@@H]1CCCN1C(=O)[C@@H]1CCCN1C(=O)CNC(=O)[C@@H]1CCC(=O)N1)[C@@H](C)CC)[C@@H](C)CC)[C@@H](C)CC)[C@@H](C)CC)[C@@H](C)O)C(N)=O [SAUVAGINE] | – | – | – | – | – | – | – | – | – | – | – | – | – | – | – | – | IC50 [19]: 0.58 nM |
| C[C@@H](C1CC1)n1cc(Cl)nc(Nc2c(Cl)cc(OC(F)F)cc2Cl)c1=O | 5% | 468 min | 12 µM·h | < 1 µg/mL | 1.3 µM·h | 100 nM | < 1 µg/mL | 17 mL/min/kg | 1 nM | 61% | 4.7 L/kg | 83% | 0.0077 | 62 mL/min/kg | 6.1 nM | 790 nM | concentration (Rattus norvegicus [20]): 80 nM; Activity (Rattus norvegicus [21]): 8%; Activity (Rattus norvegicus [22]): Dose-dependent effect; Activity (Rattus norvegicus [23]): 46%; IC50 [19]: > 10000 nM; concentration (Rattus norvegicus [24]): 270 nM; Activity (Rattus norvegicus [25]): 43%; F (Rattus norvegicus [26]): 52%; IC50 [27]: 4.9 nM; Activity (Rattus norvegicus [28]): 73%; Cp(f) (Rattus norvegicus [29]): 2.1 nM; Cp(f) (Rattus norvegicus [30]): 0.62 nM; Cmax (Rattus norvegicus [31]): 1700 nM |
| C[C@H](C1CC1)n1cc(Cl)nc(Nc2c(Cl)cc(C(F)(F)F)cc2Cl)c1=O | 37% | 1020 min | – | – | 7.35 µM·h | 490 nM | – | 21 mL/min/kg | 4.1 nM | 68% | 24 L/kg | 81% | 0.0033 | 10 mL/min/kg | 6.7 nM | 2000 nM | Activity (Rattus norvegicus [21]): inactive; Activity (Rattus norvegicus [23]): inactive; Activity (Rattus norvegicus [25]): inactive; Activity (Rattus norvegicus [28]): inactive |
| COCC(COC)Nc1nc(C)nc2c(-c3ccc(Cl)cc3Cl)c(C)nn12 | – | – | – | – | – | – | – | – | 1.2 nM | 61% | – | – | – | – | – | – | – |
